In data set [1] the target is hNav1.8 (Homo sapiens (Human), UniProt Q9Y5Y9). Put plainly: Manual patch clamp, Method 1 (CHO cell line stably expressing hNav1.8). In kind it is cell-based. To be noted: for inhibition at 0.01 µM: 10 nM; for inhibition at 0.01 µM / inhibition at 0.1 µM: Method 1, CHO-hNav1.8, read-out: Inhibition rate of hNav1.8; for inhibition at 0.1 µM: 100 nM; for IC50: Method 1, CHO-hNav1.8, manual patch clamp, resting state, read-out: IC50 inhibitory activity against hNav1.8. A general note: In patch-clamp work, channel activity is measured electrically.
Sequence of hNav1.8 (Q9Y5Y9 whole entry): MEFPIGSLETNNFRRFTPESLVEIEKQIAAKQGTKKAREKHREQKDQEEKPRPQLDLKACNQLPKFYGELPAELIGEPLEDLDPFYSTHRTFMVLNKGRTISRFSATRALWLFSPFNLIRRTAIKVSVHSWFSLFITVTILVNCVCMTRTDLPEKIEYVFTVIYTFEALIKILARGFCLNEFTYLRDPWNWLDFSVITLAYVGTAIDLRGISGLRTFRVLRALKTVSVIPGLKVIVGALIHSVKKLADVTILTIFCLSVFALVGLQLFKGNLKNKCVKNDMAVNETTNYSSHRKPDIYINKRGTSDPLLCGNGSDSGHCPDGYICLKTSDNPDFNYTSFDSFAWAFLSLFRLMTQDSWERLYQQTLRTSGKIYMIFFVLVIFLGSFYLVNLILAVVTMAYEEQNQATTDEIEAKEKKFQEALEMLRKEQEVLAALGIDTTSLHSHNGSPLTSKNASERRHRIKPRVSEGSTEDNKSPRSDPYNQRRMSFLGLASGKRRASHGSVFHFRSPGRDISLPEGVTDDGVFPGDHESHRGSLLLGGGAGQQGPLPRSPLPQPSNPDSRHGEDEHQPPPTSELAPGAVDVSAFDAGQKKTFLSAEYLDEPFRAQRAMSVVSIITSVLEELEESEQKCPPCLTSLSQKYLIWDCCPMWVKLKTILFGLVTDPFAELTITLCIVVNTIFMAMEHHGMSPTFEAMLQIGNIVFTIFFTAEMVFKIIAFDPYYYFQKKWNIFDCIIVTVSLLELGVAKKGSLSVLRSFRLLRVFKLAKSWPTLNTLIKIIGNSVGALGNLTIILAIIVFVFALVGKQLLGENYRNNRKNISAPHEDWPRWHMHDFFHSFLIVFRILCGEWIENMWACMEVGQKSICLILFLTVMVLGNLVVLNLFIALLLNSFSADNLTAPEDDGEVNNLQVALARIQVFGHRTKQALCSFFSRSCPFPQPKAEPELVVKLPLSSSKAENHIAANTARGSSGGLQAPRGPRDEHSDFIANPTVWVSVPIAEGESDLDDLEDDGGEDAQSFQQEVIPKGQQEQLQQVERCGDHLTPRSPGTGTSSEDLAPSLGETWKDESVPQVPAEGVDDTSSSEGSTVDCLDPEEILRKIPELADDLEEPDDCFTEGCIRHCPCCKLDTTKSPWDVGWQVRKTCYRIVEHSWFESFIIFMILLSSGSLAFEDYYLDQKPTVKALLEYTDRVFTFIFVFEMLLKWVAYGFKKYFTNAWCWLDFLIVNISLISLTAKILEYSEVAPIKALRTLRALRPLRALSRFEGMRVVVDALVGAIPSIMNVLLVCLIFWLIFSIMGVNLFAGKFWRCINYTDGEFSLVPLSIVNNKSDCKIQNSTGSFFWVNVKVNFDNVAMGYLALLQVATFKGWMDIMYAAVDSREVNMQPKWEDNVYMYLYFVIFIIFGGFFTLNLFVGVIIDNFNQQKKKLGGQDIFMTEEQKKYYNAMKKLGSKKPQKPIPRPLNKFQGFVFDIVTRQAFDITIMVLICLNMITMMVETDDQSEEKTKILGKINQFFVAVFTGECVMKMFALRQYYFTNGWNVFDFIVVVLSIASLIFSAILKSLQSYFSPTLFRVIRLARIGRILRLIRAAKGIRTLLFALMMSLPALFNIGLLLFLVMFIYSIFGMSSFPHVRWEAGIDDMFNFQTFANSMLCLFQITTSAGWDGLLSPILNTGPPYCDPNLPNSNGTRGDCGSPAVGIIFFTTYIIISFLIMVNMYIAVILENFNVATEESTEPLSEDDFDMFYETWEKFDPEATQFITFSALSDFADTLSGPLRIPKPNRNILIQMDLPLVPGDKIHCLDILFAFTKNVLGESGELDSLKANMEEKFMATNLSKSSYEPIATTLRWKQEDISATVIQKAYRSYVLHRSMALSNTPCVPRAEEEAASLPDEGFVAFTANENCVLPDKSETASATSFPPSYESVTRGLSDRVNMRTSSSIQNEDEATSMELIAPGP

Data set [2] deals with Human Nav1.8 ion channel (Homo sapiens (Human), UniProt Q9Y5Y9). Kind of data set: Manual patch clamp, Method 2 (HEK293 cells stably expressing human Nav1.8, resting state). The conditions noted are these: Method 2, HEK293-hNav1.8, resting state, 1 μM TTX; read-out: IC50 inhibitory activity against hNav1.8. In kind it is cell-based.
The nature of data set [3]: Stability assay for human liver microsomes in vitro. In kind it is in vitro ADME. The conditions noted are these: 1 μM compound, 0.5 mg/mL liver microsomes, read-out: Human liver microsome stability T1/2.

For `NC(=O)c1cc(NC(=O)c2cc3cc(F)c(F)cc3nc2N2CCCC(F)(F)CC2)ccn1` [Example 10, N-(2-carbamoylpyridin-4-yl)-2-(4,4-difluoroazepan-1-yl)-6,7-difluoroquinoline-3-carboxamide], in data set [1], the inhibition (usually the drop in the measured response relative to a control, in per cent) at 0.01 µM turned out to be 95.5%; the inhibition at 0.1 µM is 99.1%; the half-inhibitory concentration (IC50) – broadly, the point on the concentration scale where inhibition reaches its midpoint – is 0.784 nM. For the same molecule, the IC50 in data set [2] turned out to be 0.46 nM. Moreover, the half-life at 1 µM in data set [3] was found to be 92.7 min.

`NS(=O)(=O)c1cccc(NC(=O)c2cc3cc(F)c(F)cc3nc2N2CCCC(F)(F)CC2)c1` [Example 16, 2-(4,4-difluoroazepan-1-yl)-6,7-difluoro-N-(3-sulfamoylphenyl) quinoline-3-carboxamide]: in data set [1], the inhibition at 0.01 µM was 99.8%, the inhibition at 0.1 µM worked out at 100% and the IC50 is 0.084 nM. For the same molecule, in data set [2], the IC50 worked out at 0.071 nM. Besides, the half-life at 1 µM in data set [3] is 41.3 min.

`NC(=O)c1cc(NC(=O)c2nc3ccccc3nc2N2CCCC(F)(F)CC2)ccc1F` [Example 02, N-(3-carbamoyl-4-fluorophenyl)-3-(4,4-difluoroazepan-1-yl)quinoxaline-2-carboxamide]: in data set [1], the inhibition at 0.01 µM was 66.1%, the inhibition at 0.1 µM came to 96.1% and the IC50 came to 5.3 nM. The concentration for half-maximal inhibition (IC50) in data set [2] is 2.82 nM. For the same molecule, the half-life at 1 µM in data set [3] came out at 58.8 min.

Regarding `NC(=O)c1cc(NC(=O)c2nc3ccccc3nc2N2CCCC(F)(F)CC2)ccn1` [Example 05, N-(2-carbamoylpyridin-4-yl)-3-(4,4-difluoroazepan-1-yl)quinoxaline-2-carboxamide], in data set [1], the inhibition at 0.01 µM is 46.7%, the inhibition at 0.1 µM stood at 90.5% and the 50% inhibitory concentration (IC50) was found to be 8.9 nM. The IC50 in data set [2] turned out to be 21.3 nM. Also, in data set [3], the half-life at 1 µM stood at 93.7 min.

Consider `NS(=O)(=O)c1cc(NC(=O)c2cc3ccccc3nc2N2CCCC(F)(F)CC2)ccn1` [Example 14, 2-(4,4-difluoroazepan-1-yl)-N-(2-sulfamoylpyridine-4-yl) quinoline-3-carboxamide], for which, in data set [1], the inhibition at 0.01 µM came out at 98%, the inhibition at 0.1 µM came out at 99.6% and the IC50 stood at 0.34 nM. In data set [2], the IC50 came to 0.725 nM. Besides, in data set [3], the half-life at 1 µM is over 145 min.

Regarding `NC(=O)c1cc(NC(=O)c2cc3ccccc3nc2N2CCCC(F)(F)CC2)ccn1` [Example 08, N-(2-carbamoylpyridin-4-yl)-2-(4,4-difluoroazepan-1-yl)quinoline-3-carboxamide], in data set [1], the inhibition at 0.01 µM was determined as 75.4%, the inhibition at 0.1 µM stood at 96.6% and the IC50 turned out to be 3.3 nM. In addition, the half-inhibitory concentration (IC50) in data set [2] came out at 1.74 nM. Moreover, in data set [3], the half-life at 1 µM came to 23 min.

Values taken from patent publication US20250115578A1, “AROMATIC FUSED RING NAV1.8 INHIBITOR, AND USE THEREOF” (CHENGDU KANGHONG PHARMACEUTICAL CO., LTD., priority 2022, published 2025).
